By inhibition is commonly meant how much of the control response was suppressed. A higher inhibition goes with strong suppression.

Data set [1] is described as follows: Retinol stability in the presence of boosters (OD 360 nm). Format: physicochemical. To be noted: booster approximately 0.1%, retinol in approx. 50% aqueous ethanol, 60 hours at room temperature in the dark. On the procedure: Retinol (50% in tween 80) was dissolved in approximately 50% aqueous ethanol to provide a solution giving an OD at 360nm of approximately 0.6 when measured in a 200 μl volume in a 96 well plate using a standard 96 well spectrophotometer.
Booster molecules were added at approximately 0.1% concentration and the OD 360 measured as above immediately and after 60 hours at room temperature in the dark. A correction was applied to the OD after 60 hours (divide by 0.85) to account for increased concentration of the retinol due to evaporation of solvent from the plate.

The test system of data set [2] is TGase I. Put plainly: Transglutaminase (TGase I ELISA) assay in cultured keratinocytes with retinol. It is filed as cell-based. To be noted: for IC50: Keratinocyte, concentration of booster which, with constant retinol 10^-7 M, inhibits TGase by 50%, read-out: Overall TG (IC 50); for % Inhibition Overall TG (-ROH/RE): added effect of booster+retinol induced TGase inhibition over retinol alone.

Data set [3] deals with T1, LRAT (Bos taurus, UniProt Q9BGL2).
T1 construct: followed by approximately 15 pg of RPE microsomal protein; tissue W. L. Lawson Co., Lincoln, Nebr; host or cells: bovine retinal pigment epithelium microsomes
T1 sequence (Q9BGL2 1-230): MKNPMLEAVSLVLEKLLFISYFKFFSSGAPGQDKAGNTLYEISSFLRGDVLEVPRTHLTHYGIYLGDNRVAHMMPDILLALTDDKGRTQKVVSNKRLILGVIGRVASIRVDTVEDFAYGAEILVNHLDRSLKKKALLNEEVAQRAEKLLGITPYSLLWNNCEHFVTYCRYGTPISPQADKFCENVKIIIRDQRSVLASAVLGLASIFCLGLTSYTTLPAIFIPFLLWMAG
Put plainly: Assay for LRAT activity in RPE microsomes. It is filed as biochemical, bovine. The note with it: 100 μm compound.

In data set [4] the test system is retinoic acid oxidation (cytochrome P450 systems). The data set is described as follows: Assay for NADPH dependent retinoic acid oxidation in rat liver microsomes. Format: biochemical. The note with it: Sprague Dawley, pH 7.4, probe retinoic acid; for inhibition at 60 min, 100 µM: 10 μM. A general note: Liver microsomes are vesicles of endoplasmic reticulum, rich in cytochrome P450 enzymes.

Turning to `O=c1ccc2ccccc2o1` [COUMARIN], in data set [1], the “FOLD INCREASE IN RATE OF RETINOL LOSS” value is listed as 1.4.

In the case of `CC(C)=CCCC(C)=CCCC(C)=CCO` [Farnesol], in data set [2], the IC50 was found to be 93.5 µM. In data set [3], this compound yielded an inhibition at 100 µM of 53%.

Consider `CCCCCCCCCCCCCC(=O)O` [Myristic Acid], for which the IC50 in data set [2] stood at 17.2 µM.

Regarding `CN1CCN(C)C1=O` [Dimethyl Imidazolidinone], the “% Inhibition Overall TG (-ROH/RE)” value in data set [2] is 22%. In addition, the “FOLD INCREASE IN RATE OF RETINOL LOSS” value in data set [1] was found to be 1.4.

Regarding `CC(C)(C(=O)c1cccnc1)c1cccnc1` [Metyrapone (2-Methyl-1,2-di-3-Pyridyl-1-Propane], in data set [4], the inhibition at 60 min, 100 µM was 47%.

As for `CC(C)=CCCC(C)=CC=O` [Citral], in data set [1], the “FOLD INCREASE IN RATE OF RETINOL LOSS” value was found to be 3.1.

In the case of `CC(C)CCCCCCCCCCCCCCC(=O)O` [Isostearic Acid], the IC50 in data set [2] worked out at 68.8 µM.

With `C[C@H]1[C@H](C)CC[C@]2(C(=O)O)CC[C@]3(C)C(=CC[C@@H]4[C@@]5(C)CC[C@H](O)C(C)(C)[C@@H]5CC[C@]43C)[C@H]12` [Urosolic Acid], the IC50 in data set [2] stood at 1.46 µM.

Consider `CC(C)=CCC/C(C)=C/CC/C(C)=C/CC/C(C)=C/CO` [Geranyl Geraniol], for which the inhibition at 100 µM in data set [3] came to 77%.

As to `COc1cc(NS(C)(=O)=O)ccc1Nc1c2ccccc2nc2ccccc12` [Amsacrine, reference compound], the IC50 in data set [2] worked out at 6.26 µM.

Consider `CC1(C)[C@@H](O)CC[C@]2(C)[C@H]3C(=O)C=C4[C@@H]5C[C@@](C)(C(=O)O)CC[C@]5(C)CC[C@@]4(C)[C@]3(C)CC[C@@H]12` [Glycyrretinic Acid], for which the “FOLD INCREASE IN RATE OF RETINOL LOSS” value in data set [1] came out at 1.6.

With `Oc1cccc2cccnc12` [8 OH QUINOLINE], the “FOLD INCREASE IN RATE OF RETINOL LOSS” value in data set [1] was 1.5.

On to `CC(=O)/C=C/C1C(C)=CCCC1(C)C` (stereo not drawn) [Alpha-Ionone], for which the “FOLD INCREASE IN RATE OF RETINOL LOSS” value in data set [1] was found to be 1.3.

In data set [3], `CCCCCCCCCCCCCC(=O)N(C)CC(=O)O` [Myristoyl Sarcosine] had an inhibition at 100 µM of 11%.

`CCCCC/C=C\C/C=C\CCCCCCCC(=O)NCCCN(C)C` [Linoleamidopropyl Dimethylamine] yielded an inhibition at 100 µM in data set [3] of 75%.

On to `CCN(CC)CC(=O)Nc1c(C)cccc1C` [Lidocaine, reference compound], for which the inhibition at 100 µM in data set [3] was 0%.

Consider `COc1cc(C=O)ccc1O` [Vanillin], for which the IC50 in data set [2] worked out at 9700 µM.

With `CC(/C=C/C=C(\C)C(=O)O)=C\C=C\C=C(C)\C=C\C=C(/C)C(=O)O` [Crocetin], the IC50 in data set [2] was 37.5 µM. The inhibition at 100 µM in data set [3] was determined as 15%.

`O=C(O)CCCCCCCCCCCCCCC(=O)O` [Hexadecanedioic Acid]: the IC50 in data set [2] stood at 130 µM.

For COCAMIDE DEA, the “FOLD INCREASE IN RATE OF RETINOL LOSS” value in data set [1] turned out to be 1.9.

Turning to `CC/C=C\C/C=C\C/C=C\CCCCCCCC(=O)O` [Linolenic Acid], the IC50 in data set [2] amounted to 134 µM.

`CCCCCCCC/C=C/CCCCCCCC(=O)O` [Elaidic Acid]: in data set [2], the IC50 came to 65 µM.

As for `CCCCC/C=C/C/C=C/CCCCCCCC(=O)NC(C)c1ccccc1` (stereo not shown) [Melinamide, reference compound], the inhibition at 100 µM in data set [3] came to 43%.

Turning to `c1ccc(-c2ccc(C(c3ccccc3)n3ccnc3)cc2)cc1` (stereo not shown) [Bifonazole], in data set [4], the inhibition at 60 min, 10 µM was 89% and the inhibition at 60 min, 100 µM was determined as 100%.

For `Clc1ccc(COC(Cn2ccnc2)c2ccc(Cl)cc2Cl)c(Cl)c1` (stereo not shown) [Miconazole], in data set [4], the inhibition at 60 min, 10 µM came out at 74% and the inhibition at 60 min, 100 µM was 86%.

In the case of `CC(=O)N1CCN(c2ccc(OCC3COC(Cn4ccnc4)(c4ccc(Cl)cc4Cl)O3)cc2)CC1` (stereo not shown) [Ketoconazole], the IC50 in data set [2] stood at 0.185 µM. In data set [4], this compound gave an inhibition at 60 min, 10 µM of 84% and an inhibition at 60 min, 100 µM of 84%.

Take `CCCCCCCCCCCC(=O)N(C)CC(=O)O` [Lauroyl Sarcosine]: the “FOLD INCREASE IN RATE OF RETINOL LOSS” value in data set [1] is reported as 2.6.

As for `CC(C)=CCC/C(C)=C/CO` [Geraniol], in data set [2], the IC50 was 7830 µM. Moreover, in data set [1], the “FOLD INCREASE IN RATE OF RETINOL LOSS” value is 1.3.

`Clc1ccccc1C(c1ccccc1)(c1ccccc1)n1ccnc1` [Clotrimazole] registered an inhibition at 60 min, 10 µM in data set [4] of 76%.

Take `CCCCC/C=C\C/C=C\CCCCCCCC(=O)N(CCO)CCO` [Linoleamide-DEA (or Linoleoyl Diethanolamide)]: the “% Inhibition Overall TG (-ROH/RE)” value in data set [2] is 59%. Besides, the “FOLD INCREASE IN RATE OF RETINOL LOSS” value in data set [1] was found to be 3.0.

In data set [3], `CC(=O)c1cc2c(cc1C)C(C)(C)C(C)CC2(C)C` (stereo not shown) [Tonalid] gave an inhibition at 100 µM of 33%.

`O=c1c(O)c(-c2ccc(O)c(O)c2)oc2cc(O)cc(O)c12` [Quercetin]: the IC50 in data set [2] amounted to 62.9 µM. In data set [4], this compound registered an inhibition at 60 min, 10 µM of 40% and an inhibition at 60 min, 100 µM of 74%.

For `CC(C)(C)C(=O)C(Oc1ccc(Cl)cc1)n1ccnc1` (stereo not shown) [Climbazole], in data set [2], the IC50 came to 4.47 µM. In addition, in data set [4], the inhibition at 60 min, 10 µM came to 80% and the inhibition at 60 min, 100 µM stood at 92%.

As to `CCCCC/C=C\C/C=C\CCCCCCCC(=O)O` [Linoleic Acid], the IC50 in data set [2] worked out at 163 µM. Moreover, the “FOLD INCREASE IN RATE OF RETINOL LOSS” value in data set [1] is given as 3.4.

In the case of DAMASCONE, in data set [1], the “FOLD INCREASE IN RATE OF RETINOL LOSS” value is 3.7.

Turning to `CC1(C)[C@@H](OC(=O)CCC(=O)O)CC[C@]2(C)[C@H]3C(=O)C=C4[C@@H]5C[C@@](C)(C(=O)O)CC[C@]5(C)CC[C@@]4(C)[C@]3(C)CC[C@@H]12` [Carbenoxolone, reference compound], in data set [2], the IC50 is 0.361 µM.

In data set [4], `Clc1ccc(COC(Cn2ccnc2)c2ccc(Cl)cc2Cl)cc1` (stereo not shown) [Econazole] had an inhibition at 60 min, 10 µM of 88% and an inhibition at 60 min, 100 µM of 100%.
